Target: T1, human α1A adrenergic receptor (Homo sapiens, UniProt P35348)
T1 construct: host or cells: GeneBLAzer ADRA1A-NFAT-bla CHO-K1 cells
T1 sequence (P35348 1-466): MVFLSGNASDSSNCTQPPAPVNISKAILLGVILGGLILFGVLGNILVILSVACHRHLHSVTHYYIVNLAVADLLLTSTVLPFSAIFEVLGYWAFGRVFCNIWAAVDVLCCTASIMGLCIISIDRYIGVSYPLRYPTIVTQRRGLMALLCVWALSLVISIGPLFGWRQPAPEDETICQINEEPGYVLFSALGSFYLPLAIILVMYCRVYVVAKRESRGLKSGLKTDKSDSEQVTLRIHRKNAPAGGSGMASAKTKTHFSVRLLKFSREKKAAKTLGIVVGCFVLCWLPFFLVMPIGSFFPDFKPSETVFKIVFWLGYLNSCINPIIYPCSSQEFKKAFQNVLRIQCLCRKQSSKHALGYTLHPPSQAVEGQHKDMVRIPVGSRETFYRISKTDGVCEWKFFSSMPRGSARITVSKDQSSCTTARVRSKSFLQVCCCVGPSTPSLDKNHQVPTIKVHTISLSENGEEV
Test: Ca2+ mobilization assay in human α1A adrenergic receptor-expressing cells
Format: cell-based
Design: Emax: dose or concentration left out as unconfirmed
Settings: for Emax at 10 µM: % activation at 10 μmol/L test compound, 100 μmol/L norepinephrine = 100%, well without test compound = 0%; for EC50: CHO-K1 cells expressing human α1A adrenergic receptor, Fluo-4 fluorescence, concentration giving 50% response of Emax, 4-parameter logistic regression
Procedure: CHO-K1 cells that highly express a human α1A adrenergic receptor (GeneBLAzer™ ADRA1A-NFAT-bla CHO-K1 Cells) were purchased from Thermo Fisher Scientific, Inc., and cultured according to the instructions.
The cultured human α1A adrenergic receptor-expressing cells were washed with D-PBS, then replaced with a loading buffer (2 μmol/L Fluo-4/AM, 1× PowerLoad, 2.5 mmol/L Probenecid-containing DMEM (high-glucose)) and incubated at 37° C. for 60 minutes in a 5% CO2 incubator. The cells were detached using 0.05% trypsin-EDTA solution, and suspended in an assay buffer ([…], 0.054 mol/L KCl, 1.8 mmol/L CaCl2), 1 mmol/L MgSO4, 0.11 mol/L glucose, 0.01 mol/L NaH2PO4·2H2O, […], pH 7.3) to be 500,000 cells/mL.
Test compounds were dissolved in dimethylsulfoxide, and diluted with an assay buffer containing 0.3% BSA. The final concentrations of the test compounds were set to fall within the range of 0.1 nmol/L to 10 μmol/L. As a reference compound, norepinephrine was set to have a final concentration within the range of 0.01 nmol/L to 100 μmol/L.
On a 384-well clear bottom black plate coated with poly-D-lysine (Corning Inc.), the above-described cell-suspended solution was dispersed in 40 μL each (20,000 cells/well) and allowed to stand for 10 minutes. The plate was transferred to a fluorescent imaging plate reader (FDSS7000, Hamamatsu Photonics K.K.), and measurements were started. After 1 minute from the start of the measurements, 20 μL of the test compound solutions or norepinephrine solution (total amount: 60 μL/well) was added to each well of the plate (final concentration: 0.1% BSA, 0.1% dimethylsulfoxide), and the temporal change in fluorescence intensity of Fluo-4 was further measured for 5 minutes (Ex 480 nm/Em 540 nm).
The normalized values (% activation) were used for subsequent analyses.
Emax values and EC50 values were calculated by creating a concentration-response curve of the test compounds using a 4-parameter logistic regression with XLFit, Emax value being defined as % activation of test compound at the concentration of 10 μmol/L, and EC50 value being defined as the concentration in which 50% response of the Emax values is shown.

Compound	Emax at 10 µM [%]	EC50 [nM]	Emax [%]
COc1cccc(-c2ccccc2NC(C)c2c[nH]cn2)n1 (stereo not drawn) [Example 37, N-(1-(1H-imidazol-4-yl)ethyl)-2-(6-methoxypyridin-2-yl)aniline]		2.1	109
Cc1ccc(-c2cncnc2C)c(OCc2c[nH]cn2)c1 [Example 65]	98	6.7	
c1cncc(-c2ccccc2SCc2c[nH]cn2)c1 [Example 80, 3-(2-(((1H-Imidazol-4-yl)methyl)thio)phenyl)pyridine]	101	3.4	
Cc1ccc(-c2cnccc2C)c(OCc2c[nH]cn2)c1 [Example 57]	96	6.1	
c1coc(-c2ccccc2OCc2c[nH]cn2)c1 [Example 45]	107	9.4	
c1ccc(-c2cncs2)c(OCc2c[nH]cn2)c1 [Example 71]		1.9	103
COc1c(F)cncc1-c1ccccc1OCc1c[nH]cn1 [Example 74]		0.5	96
c1cncc(-c2sccc2NCc2c[nH]cn2)c1 [Example 7, N-((1H-imidazol-4-yl)methyl)-2-(pyridin-3-yl)thiophen-3-amine]	92	4.5	
COc1cncc(-c2ccccc2OCc2c[nH]cn2)n1 [Example 77]		0.6	92
COc1ncc(F)cc1-c1ccccc1OCc1c[nH]cn1 [Example 61]	90	4.5	
c1ccc(-c2ccsc2)c(SCc2c[nH]cn2)c1 [Example 82]	104	6.9	
Cc1ccncc1-c1ccccc1OCc1c[nH]cn1 [Example 72]		7.4	106
c1ccc(-c2nccs2)c(OCc2c[nH]cn2)c1 [Example 70]		2.4	93
c1ccc(-c2cnccn2)c(OCc2c[nH]cn2)c1 [Example 68]		2.3	100
c1ccc(-c2cncnc2)c(NCc2c[nH]cn2)c1 [Example 10, N-((1H-imidazol-4-yl)methyl)-2-(pyrimidin-5-yl)aniline]	103	3.8	
c1ccc(-c2cn[nH]c2)c(SCc2c[nH]cn2)c1 [Example 81]	106	9	
CC(Nc1ccccc1-c1cccnc1)c1c[nH]cn1 (single isomer, unassigned; (+)) [Example 36, (+)-N-(1-(1H-Imidazol-4-yl)ethyl)-2-(pyridin-3-yl)aniline]	86	3.7	
COc1cncc(-c2ccccc2OCc2c[nH]cn2)c1 [Example 53]	93	5.1	
c1ccc(-c2cnccc2C2CC2)c(OCc2c[nH]cn2)c1 [Example 73]		0.7	89

More lines, in order of falling EC50, values ahead:

Emax at 10 µM [%]	EC50 [nM]	Compound	Emax [%]
102	3.1	Cc1ncncc1-c1ccccc1NCc1c[nH]cn1 [Example 19, N-((1H-imidazol-4-yl)methyl)-2-(4-methylpyrimidin-5-yl)aniline]	
104	3	c1cncc(-c2ccccc2OCc2c[nH]cn2)c1 [Example 48]	
96	2.3	Fc1cccnc1-c1cscc1NCc1c[nH]cn1 [Example 29, N-((1H-imidazol-4-yl)methyl)-4-(3-fluoropyridin-2-yl)thiophen-3-amine]	
100	1.7	Cc1ncncc1-c1ccc(F)cc1NCc1c[nH]cn1 [Example 25, N-((1H-imidazol-4-yl)methyl)-5-fluoro-2-(4-methylpyrimidin-5-yl)aniline]	
98	1.6	COc1ccncc1-c1ccccc1OCc1c[nH]cn1 [Example 54]	
91	1.3	COc1n[nH]cc1-c1ccc(F)cc1NCc1c[nH]cn1 [Example 34, N-((1H-imidazol-4-yl)methyl)-5-fluoro-2-(3-methoxy-1H-pyrazol-4-yl)aniline]	
105	1.2	c1ccc(-c2cnccn2)c(NCc2c[nH]cn2)c1 [Example 26, N-((1H-imidazol-4-yl)methyl)-2-(pyrazin-2-yl)aniline]	
100	1.1	COc1cccc(-c2ccccc2NCc2c[nH]cn2)n1 [Example 32, N-((1H-imidazol-4-yl)methyl)-2-(6-methoxypyridin-2-yl)aniline]	
101	1.1	c1cnc(-c2cscc2NCc2c[nH]cn2)cn1 [Example 13, N-((1H-imidazol-4-yl)methyl)-4-(pyrazin-2-yl)thiophen-3-amine]	
97	1	Cc1n[nH]cc1-c1ccc(F)cc1OCc1c[nH]cn1 [Example 58]	
105	0.8	Cc1ccc(-c2c[nH]nc2C#N)c(OCc2c[nH]cn2)c1 [Example 56]	
103	0.8	c1csc(-c2cscc2NCc2c[nH]cn2)c1 [Example 1]	
92	0.7	COc1ccncc1-c1ccc(F)cc1OCc1c[nH]cn1 [Example 63]	
97	0.7	c1ccc(-c2cscc2NCc2c[nH]cn2)nc1 [Example 30, N-((1H-imidazol-4-yl)methyl)-4-(pyridin-2-yl)thiophen-3-amine]	
93	0.6	COc1ccncc1-c1cscc1NCc1c[nH]cn1 [Example 4, N-((1H-imidazol-4-yl)methyl)-4-(4-methoxypyridin-3-yl)thiophen-3-amine]	
90	0.6	COc1ncccc1-c1cscc1NCc1c[nH]cn1 [Example 43]	
101	0.4	c1csc(-c2cscc2NCc2c[nH]cn2)n1 [Example 12, N-((1H-imidazol-4-yl)methyl)-4-(thiazol-2-yl)thiophen-3-amine]	
101	0.4	Cc1ccc(-c2c[nH]nc2C)c(OCc2c[nH]cn2)c1 [Example 59]	
92	0.3	c1cncc(-c2cscc2NCc2c[nH]cn2)c1 [Example 3, N-((1H-imidazol-4-yl)methyl)-4-(pyridin-3-yl)thiophen-3-amine]	
98	0.3	COc1cncc(-c2cscc2NCc2c[nH]cn2)c1 [Example 5, N-((1H-imidazol-4-yl)methyl)-4-(5-methoxypyridin-3-yl)thiophen-3-amine]	
92	0.2	COc1ccnc(-c2cscc2NCc2c[nH]cn2)c1 [Example 21, N-((1H-imidazol-4-yl)methyl)-4-(4-methoxypyridin-2-yl)thiophen-3-amine]	
101	0.2	Cc1scnc1-c1cscc1NCc1c[nH]cn1 [Example 24, N-((1H-imidazol-4-yl)methyl)-4-(5-methylthiazol-4-yl)thiophen-3-amine]	
98	0.1	c1ccc(-c2cscn2)c(NCc2c[nH]cn2)c1 [Example 15, N-((1H-imidazol-4-yl)methyl)-2-(thiazol-4-yl)aniline]	
